Experimental data: publication PMC12621043, “Un-LOK-ing a New Approach for Conformational Selective Targeting of STK10 (LOK)” (ACS Medicinal Chemistry Letters, 2025)

Test system: CDC42BPAA
Experiment: DSF Tm panel
Type: binding
Conditions: 10 μM compound

Row | Compound | ΔTm CDC42BPAA
1 | COc1cccc(CNC(=O)Nc2ccc3cc2OCCOCCNc2ccn4ncc-3c4n2)c1 [compound 30] | 0,2 °C
2 | COc1ccc(CNC(=O)Nc2ccc3cc2OCCOCCNc2ccn4ncc-3c4n2)cc1F [compound 32] | 0,1 °C

Target: T1, EPHA2 (EPHA2A) (Homo sapiens, UniProt P29317)
T1 construct: purchased in-house DSF kinase panel (SGC-style construct names; the trailing letter is the construct ID)
T1 sequence (P29317 596-900): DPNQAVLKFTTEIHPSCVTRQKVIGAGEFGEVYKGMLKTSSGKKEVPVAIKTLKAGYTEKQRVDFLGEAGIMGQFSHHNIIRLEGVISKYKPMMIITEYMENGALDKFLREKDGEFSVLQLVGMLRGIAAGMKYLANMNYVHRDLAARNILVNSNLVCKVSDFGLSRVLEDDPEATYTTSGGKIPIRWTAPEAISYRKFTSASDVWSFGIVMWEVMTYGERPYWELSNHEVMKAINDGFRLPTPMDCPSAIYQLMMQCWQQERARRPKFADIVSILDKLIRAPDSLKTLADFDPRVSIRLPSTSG
Experiment: DSF Tm panel
Type: binding
Conditions: 10 μM compound

Row | Compound | ΔTm at 10 µM [°C]
3 | COc1cccc(CNC(=O)Nc2ccc3cc2OCCOCCNc2ccn4ncc-3c4n2)c1 [compound 30] | 0.4
4 | COc1ccc(CNC(=O)Nc2ccc3cc2OCCOCCNc2ccn4ncc-3c4n2)cc1F [compound 32] | 0.3

Target: T2, NEK1A (Homo sapiens, UniProt Q96PY6)
T2 construct: purchased in-house DSF kinase panel (SGC-style construct names; the trailing letter is the construct ID)
T2 sequence (Q96PY6 1-328): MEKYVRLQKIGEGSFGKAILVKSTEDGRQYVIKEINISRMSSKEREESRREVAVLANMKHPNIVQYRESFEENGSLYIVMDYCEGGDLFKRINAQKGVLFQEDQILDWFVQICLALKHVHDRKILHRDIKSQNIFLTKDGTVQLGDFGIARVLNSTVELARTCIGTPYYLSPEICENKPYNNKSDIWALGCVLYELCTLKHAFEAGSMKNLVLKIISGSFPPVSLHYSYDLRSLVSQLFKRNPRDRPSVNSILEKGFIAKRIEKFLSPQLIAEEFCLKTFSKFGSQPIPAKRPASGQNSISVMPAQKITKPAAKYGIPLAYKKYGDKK
Experiment: DSF Tm panel
Type: binding
Conditions: 10 μM compound

Row | Compound | ΔTm at 10 µM [°C]
5 | COc1cccc(CNC(=O)Nc2ccc3cc2OCCOCCNc2ccn4ncc-3c4n2)c1 [compound 30] | -0.2
6 | COc1ccc(CNC(=O)Nc2ccc3cc2OCCOCCNc2ccn4ncc-3c4n2)cc1F [compound 32] | -0.4

Test system: RPS6KA1A
Experiment: DSF Tm panel
Type: binding
Conditions: 10 μM compound

Row | Compound | ΔTm RPS6KA1A
7 | COc1cccc(CNC(=O)Nc2ccc3cc2OCCOCCNc2ccn4ncc-3c4n2)c1 [compound 30] | 0,6 °C
8 | COc1ccc(CNC(=O)Nc2ccc3cc2OCCOCCNc2ccn4ncc-3c4n2)cc1F [compound 32] | 0,8 °C

Target: T3, STK4 (STK4A) (Homo sapiens, UniProt Q13043)
T3 construct: purchased in-house DSF kinase panel (SGC-style construct names; the trailing letter is the construct ID)
T3 sequence (Q13043 1-311): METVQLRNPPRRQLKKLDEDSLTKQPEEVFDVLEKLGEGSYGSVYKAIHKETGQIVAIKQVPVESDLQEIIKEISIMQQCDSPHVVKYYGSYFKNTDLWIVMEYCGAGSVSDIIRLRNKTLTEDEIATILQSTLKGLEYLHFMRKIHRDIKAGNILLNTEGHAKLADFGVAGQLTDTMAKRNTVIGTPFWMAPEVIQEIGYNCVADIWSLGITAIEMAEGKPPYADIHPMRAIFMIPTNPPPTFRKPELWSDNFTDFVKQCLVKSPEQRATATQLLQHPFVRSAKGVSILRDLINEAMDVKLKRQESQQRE
Experiment: DSF Tm panel
Type: binding
Conditions: 10 μM compound

Row | Compound | ΔTm at 10 µM [°C]
9 | COc1cccc(CNC(=O)Nc2ccc3cc2OCCOCCNc2ccn4ncc-3c4n2)c1 [compound 30] | 3
10 | COc1ccc(CNC(=O)Nc2ccc3cc2OCCOCCNc2ccn4ncc-3c4n2)cc1F [compound 32] | 4.4

Target: T4, VRK1A (Homo sapiens, UniProt Q99986)
T4 construct: purchased in-house DSF kinase panel (SGC-style construct names; the trailing letter is the construct ID)
T4 sequence (Q99986 1-396): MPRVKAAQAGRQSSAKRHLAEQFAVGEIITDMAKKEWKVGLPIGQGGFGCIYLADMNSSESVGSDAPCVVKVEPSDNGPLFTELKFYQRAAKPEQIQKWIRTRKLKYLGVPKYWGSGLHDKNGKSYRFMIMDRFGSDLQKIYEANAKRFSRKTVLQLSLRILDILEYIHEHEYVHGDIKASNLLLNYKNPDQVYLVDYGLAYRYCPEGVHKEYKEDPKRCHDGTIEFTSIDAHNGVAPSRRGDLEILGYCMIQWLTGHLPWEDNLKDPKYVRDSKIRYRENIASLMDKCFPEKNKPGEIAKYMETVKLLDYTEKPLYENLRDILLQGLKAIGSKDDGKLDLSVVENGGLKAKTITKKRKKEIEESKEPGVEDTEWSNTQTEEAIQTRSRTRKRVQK
Experiment: DSF Tm panel
Type: binding
Conditions: 10 μM compound

Row | Compound | ΔTm at 10 µM [°C]
11 | COc1cccc(CNC(=O)Nc2ccc3cc2OCCOCCNc2ccn4ncc-3c4n2)c1 [compound 30] | 0.3
12 | COc1ccc(CNC(=O)Nc2ccc3cc2OCCOCCNc2ccn4ncc-3c4n2)cc1F [compound 32] | 0.2

Target: T5, STK3 (STK3A) (Homo sapiens, UniProt Q13188)
T5 construct: purchased in-house DSF kinase panel (SGC-style construct names; the trailing letter is the construct ID)
T5 sequence (Q13188 16-313): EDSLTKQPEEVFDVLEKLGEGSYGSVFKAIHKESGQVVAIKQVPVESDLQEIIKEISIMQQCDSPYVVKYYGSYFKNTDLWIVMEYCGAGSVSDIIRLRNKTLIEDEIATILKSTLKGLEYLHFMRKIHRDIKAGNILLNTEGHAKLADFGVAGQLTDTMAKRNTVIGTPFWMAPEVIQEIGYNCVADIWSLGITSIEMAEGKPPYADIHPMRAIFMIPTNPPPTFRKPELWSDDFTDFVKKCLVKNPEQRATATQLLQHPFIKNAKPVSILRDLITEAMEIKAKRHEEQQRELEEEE
Experiment: DSF Tm panel
Type: binding
Conditions: 10 μM compound

Row | Compound | ΔTm at 10 µM [°C]
13 | COc1cccc(CNC(=O)Nc2ccc3cc2OCCOCCNc2ccn4ncc-3c4n2)c1 [compound 30] | 3.7
14 | COc1ccc(CNC(=O)Nc2ccc3cc2OCCOCCNc2ccn4ncc-3c4n2)cc1F [compound 32] | 4.7

Target: T6, SLK (Homo sapiens, UniProt Q9H2G2)
Experiment: PhosphoSens in vitro activity assay
Type: biochemical
Conditions: ATP 150 μM

Row | Compound | IC50 [µM]
15 | COc1cccc(CNC(=O)Nc2ccc3cc2OCCOCCNc2ccn4ncc-3c4n2)c1 [compound 30] | > 20
16 | COc1ccc(CNC(=O)Nc2ccc3cc2OCCOCCNc2ccn4ncc-3c4n2)cc1F [compound 32] | 11 ± 2.68

Target: T7, MELKA (Homo sapiens, UniProt Q14680)
T7 construct: purchased in-house DSF kinase panel (SGC-style construct names; the trailing letter is the construct ID)
Experiment: DSF Tm panel
Type: binding
Conditions: 10 μM compound

T7 sequence (Q14680 1-340): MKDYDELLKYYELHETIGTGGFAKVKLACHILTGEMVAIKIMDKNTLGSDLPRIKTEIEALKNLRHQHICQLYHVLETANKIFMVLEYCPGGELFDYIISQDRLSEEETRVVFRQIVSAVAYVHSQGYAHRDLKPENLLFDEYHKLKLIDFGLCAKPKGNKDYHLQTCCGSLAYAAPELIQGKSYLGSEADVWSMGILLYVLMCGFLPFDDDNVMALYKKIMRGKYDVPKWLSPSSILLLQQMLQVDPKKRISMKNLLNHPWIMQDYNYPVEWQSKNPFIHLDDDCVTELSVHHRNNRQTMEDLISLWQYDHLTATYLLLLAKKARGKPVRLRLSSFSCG

Row | Compound | ΔTm at 10 µM [°C]
17 | COc1cccc(CNC(=O)Nc2ccc3cc2OCCOCCNc2ccn4ncc-3c4n2)c1 [compound 30] | 1.3
18 | COc1ccc(CNC(=O)Nc2ccc3cc2OCCOCCNc2ccn4ncc-3c4n2)cc1F [compound 32] | 1.4

Target: T8, AAK1 (AAK1A) (Homo sapiens, UniProt Q2M2I8)
T8 construct: purchased in-house DSF kinase panel (SGC-style construct names; the trailing letter is the construct ID)
Experiment: DSF Tm panel
Type: binding
Conditions: 10 μM compound

T8 sequence (Q2M2I8 27-365): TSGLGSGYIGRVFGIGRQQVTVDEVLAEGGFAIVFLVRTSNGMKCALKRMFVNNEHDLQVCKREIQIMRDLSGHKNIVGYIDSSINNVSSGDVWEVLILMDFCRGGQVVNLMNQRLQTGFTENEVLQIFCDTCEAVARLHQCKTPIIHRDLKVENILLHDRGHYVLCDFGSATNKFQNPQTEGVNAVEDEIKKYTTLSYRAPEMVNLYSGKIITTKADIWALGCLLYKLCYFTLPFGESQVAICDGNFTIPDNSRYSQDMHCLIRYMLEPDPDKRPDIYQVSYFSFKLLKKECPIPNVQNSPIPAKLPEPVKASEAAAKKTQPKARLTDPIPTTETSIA

Row | Compound | ΔTm at 10 µM [°C]
19 | COc1cccc(CNC(=O)Nc2ccc3cc2OCCOCCNc2ccn4ncc-3c4n2)c1 [compound 30] | 6.3
20 | COc1ccc(CNC(=O)Nc2ccc3cc2OCCOCCNc2ccn4ncc-3c4n2)cc1F [compound 32] | 6.3

Target: T6, SLK
Experiment: NanoBRET target engagement assay
Type: cell-based
Set-up: has a greater impact on the full-length protein than on the kinase domains; host or cells: HEK293T (ATCC CRL-3216)
Conditions: HEK293T cells

Row | Compound | EC50 [µM]
21 | COc1cccc(CNC(=O)Nc2ccc3cc2OCCOCCNc2ccn4ncc-3c4n2)c1 [compound 30] | > 50
22 | COc1ccc(CNC(=O)Nc2ccc3cc2OCCOCCNc2ccn4ncc-3c4n2)cc1F [compound 32] | > 50

Target: T9, BMP2KA (Homo sapiens, UniProt Q9NSY1)
T9 construct: purchased in-house DSF kinase panel (SGC-style construct names; the trailing letter is the construct ID)
Experiment: DSF Tm panel
Type: binding
Conditions: 10 μM compound

T9 sequence (Q9NSY1 38-345): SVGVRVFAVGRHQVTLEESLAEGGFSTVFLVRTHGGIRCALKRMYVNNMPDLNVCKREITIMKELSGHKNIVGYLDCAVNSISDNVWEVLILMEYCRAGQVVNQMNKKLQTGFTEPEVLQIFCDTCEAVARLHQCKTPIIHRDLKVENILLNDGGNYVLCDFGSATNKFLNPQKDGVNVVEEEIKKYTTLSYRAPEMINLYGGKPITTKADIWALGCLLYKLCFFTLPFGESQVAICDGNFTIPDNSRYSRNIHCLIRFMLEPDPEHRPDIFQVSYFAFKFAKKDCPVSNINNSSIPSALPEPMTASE

Row | Compound | ΔTm at 10 µM [°C]
23 | COc1cccc(CNC(=O)Nc2ccc3cc2OCCOCCNc2ccn4ncc-3c4n2)c1 [compound 30] | 9.8
24 | COc1ccc(CNC(=O)Nc2ccc3cc2OCCOCCNc2ccn4ncc-3c4n2)cc1F [compound 32] | 10.9

Target: T10, DYRK1AA (Homo sapiens, UniProt Q13627)
T10 construct: purchased in-house DSF kinase panel (SGC-style construct names; the trailing letter is the construct ID)
Experiment: DSF Tm panel
Type: binding
Conditions: 10 μM compound

Row | Compound | ΔTm at 10 µM [°C]
25 | COc1cccc(CNC(=O)Nc2ccc3cc2OCCOCCNc2ccn4ncc-3c4n2)c1 [compound 30] | -0.4
26 | COc1ccc(CNC(=O)Nc2ccc3cc2OCCOCCNc2ccn4ncc-3c4n2)cc1F [compound 32] | 0.6

Target: T11, MAPK13A (Homo sapiens, UniProt O15264)
T11 construct: purchased in-house DSF kinase panel (SGC-style construct names; the trailing letter is the construct ID)
T11 sequence (O15264 1-365): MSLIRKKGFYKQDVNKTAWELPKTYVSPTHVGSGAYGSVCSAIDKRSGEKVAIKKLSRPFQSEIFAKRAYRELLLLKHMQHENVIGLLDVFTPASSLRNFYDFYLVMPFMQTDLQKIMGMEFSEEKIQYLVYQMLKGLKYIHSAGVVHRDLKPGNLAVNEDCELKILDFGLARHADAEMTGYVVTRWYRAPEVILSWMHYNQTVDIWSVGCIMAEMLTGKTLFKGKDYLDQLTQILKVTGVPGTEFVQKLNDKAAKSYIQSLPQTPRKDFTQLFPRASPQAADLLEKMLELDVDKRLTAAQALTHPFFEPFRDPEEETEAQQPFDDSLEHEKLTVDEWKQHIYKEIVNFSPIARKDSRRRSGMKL
Experiment: DSF Tm panel
Type: binding
Conditions: 10 μM compound

Row | Compound | ΔTm at 10 µM [°C]
27 | COc1cccc(CNC(=O)Nc2ccc3cc2OCCOCCNc2ccn4ncc-3c4n2)c1 [compound 30] | -0.1
28 | COc1ccc(CNC(=O)Nc2ccc3cc2OCCOCCNc2ccn4ncc-3c4n2)cc1F [compound 32] | -0.3

Target: T12, CDKL1A (Homo sapiens, UniProt Q00532)
T12 construct: purchased in-house DSF kinase panel (SGC-style construct names; the trailing letter is the construct ID)
Experiment: DSF Tm panel
Type: binding
Conditions: 10 μM compound

T12 sequence (Q00532 1-303): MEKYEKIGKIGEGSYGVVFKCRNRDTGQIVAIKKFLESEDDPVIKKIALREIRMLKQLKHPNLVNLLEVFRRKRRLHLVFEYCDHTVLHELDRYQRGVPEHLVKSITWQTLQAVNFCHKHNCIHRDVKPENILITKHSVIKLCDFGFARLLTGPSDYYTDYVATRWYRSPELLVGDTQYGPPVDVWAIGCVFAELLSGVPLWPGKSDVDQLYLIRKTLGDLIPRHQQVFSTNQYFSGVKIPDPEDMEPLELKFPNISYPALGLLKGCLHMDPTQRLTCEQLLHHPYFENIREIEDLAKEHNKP

Row | Compound | ΔTm at 10 µM [°C]
29 | COc1cccc(CNC(=O)Nc2ccc3cc2OCCOCCNc2ccn4ncc-3c4n2)c1 [compound 30] | 0.3
30 | COc1ccc(CNC(=O)Nc2ccc3cc2OCCOCCNc2ccn4ncc-3c4n2)cc1F [compound 32] | 0.5
